# From article PMC8041433 (Environmental Health Perspectives, 2021)
# Where “and” joins values, the source holds several entries; their conditions need not be identical. Equal entries are not always repeated. Structures can show the parent of a compound that is named as a salt. Where two headings read alike, the source gives them in different places.
# What was measured:
# recombinant human AChE [1] = target: T1, recombinant human AChE (Homo sapiens, UniProt P22303); assay: biochemical
# recombinant human AChE [2] = target: T1, recombinant human AChE; assay: biochemical; remark: listed apart in the source
# AChE in SH-SY5Y cells = AChE in SH-SY5Y cells (Homo sapiens, UniProt P22303); assay: cell-based
# recombinant human AChE [3] = target: T1, recombinant human AChE
# recombinant human AChE [4] = target: T1, recombinant human AChE; assay: biochemical; type: biochemical; conditions: for AC50: AC50 (uM)
# [5] = target: AChE in SH-SY5Y spheroids (Homo sapiens, UniProt P22303); assay: cell-based; conditions: potency (IC50)
# [6] = target: AChE in neural stem cell spheroids (Homo sapiens, UniProt P22303); assay: cell-based; conditions: for IC50: potency (IC50)
# recombinant human AChE [7] = target: T1, recombinant human AChE; assay: biochemical; remark: listed apart in the source
# [8] = target: AChE in neural stem cells (Homo sapiens, UniProt P22303); assay: cell-based
# [9] = Neural stem cell spheroid (48 h)
# [10] = potency (IC50), Enzyme with microsomes
# [11] = potency (IC50), SH-SY5Y cells monolayer
# [12] = Neural stem cell spheroid (24 h)
# Throughout, for IR or R: key: Reversible (R); Irreversible (IR); ND, not detected in enzyme-based AChE inhibition assay from current study.
# AChE in SH-SY5Y cells, sequence (P22303 32-614): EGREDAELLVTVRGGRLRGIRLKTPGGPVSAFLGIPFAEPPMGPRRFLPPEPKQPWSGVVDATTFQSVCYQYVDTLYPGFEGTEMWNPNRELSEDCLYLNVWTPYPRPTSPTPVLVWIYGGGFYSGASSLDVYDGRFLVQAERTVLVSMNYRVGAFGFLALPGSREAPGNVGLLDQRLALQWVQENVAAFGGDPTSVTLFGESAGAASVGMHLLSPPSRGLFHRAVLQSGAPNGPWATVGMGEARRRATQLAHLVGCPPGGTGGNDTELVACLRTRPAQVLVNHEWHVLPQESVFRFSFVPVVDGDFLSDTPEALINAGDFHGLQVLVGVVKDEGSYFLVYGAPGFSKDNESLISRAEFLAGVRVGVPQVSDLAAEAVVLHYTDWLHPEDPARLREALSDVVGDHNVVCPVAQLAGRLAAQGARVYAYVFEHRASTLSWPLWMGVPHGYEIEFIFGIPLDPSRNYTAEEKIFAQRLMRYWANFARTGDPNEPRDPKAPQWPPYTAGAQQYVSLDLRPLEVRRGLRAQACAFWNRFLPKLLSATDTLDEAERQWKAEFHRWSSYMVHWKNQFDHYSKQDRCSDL
# AChE in neural stem cell spheroids, sequence (P22303 32-614): as above
# AChE in SH-SY5Y spheroids, sequence (P22303 32-614): as above
# T1 sequence (P22303 32-614): as above
# AChE in neural stem cells, sequence (P22303 32-614): as above
SMILES,CC-v2 (curve classes) (recombinant human AChE [2]),Efficacy (recombinant human AChE [2]),IC50 (AChE in SH-SY5Y cells; IC50 (uM)),CC-v2 (curve classes) (recombinant human AChE [3]),Efficacy (recombinant human AChE [3]),AC50 (recombinant human AChE [4]),IR or R (recombinant human AChE [4]),CC-v2 (curve classes) (AChE in SH-SY5Y cells),also measured
O=C(O)CC[N+](=O)[O-] [3-Nitropropionic acid],-2.1,-85.687,8.94 µM and 11.2 µM and 2.24 µM,-2.2,-41.028,–,–,–,IC50 (recombinant human AChE [1]; IC50 (uM)): 71 µM; IC50 (recombinant human AChE [2]; IC50 (uM)): 28.3 µM
"COc1cc2nc(N(C)CCCNC(=O)C3CCCO3)nc(N)c2cc1OC (stereo not shown) [Alfuzosin hydrochloride, reference compound]",–,–,–,–,–,14.7 µM (3×) and 13.1 µM and 7.35 µM and 9.25 µM and 10.4 µM (2×),–,–,–
"CN1CCCC(n2nc(Cc3ccc(Cl)cc3)c3ccccc3c2=O)CC1 (stereo not shown) [Azelastine (hydrochloride), reference compound]",–,–,–,–,–,27.3 µM (3×) and 24.3 µM (2×) and 30.6 µM (2×),R,–,"IC50 ([5]; SH-SY5Y spheroids (24 h)): 13.8 µM; IC50 ([5]; SH-SY5Y spheroids (48 h)): 19.3 µM; potency (IC50), Neural stem cell spheroid (24 h) [6]: Inactive; IC50 [6, 9]: 4.45 µM; IC50 (recombinant human AChE [1]; [10]): 27.4 µM; IC50 (recombinant human AChE [7]): 36.6 ± 10.3 µM; IC50 [8]: 22.6 µM; IC50 (recombinant human AChE [2]; potency (IC50), Enzyme): 25.4 µM; IC50 (AChE in SH-SY5Y cells; [11]): 20.9 µM"
"COc1ccc(OC(F)(F)F)cc1CN[C@H]1CCCN[C@H]1c1ccccc1 [CP-122721, reference compound]",4,0,–,4,0,–,–,4,"potency (IC50), Enzyme-based assay with heat-inactivated microsomes (recombinant human AChE [7]): Inactive; potency (IC50), Enzyme (recombinant human AChE [2]): Inactive; potency (IC50), SH-SY5Y cells monolayer (AChE in SH-SY5Y cells): Inactive; potency (IC50), Enzyme with microsomes (recombinant human AChE [3]): Inactive"
"[H]/N=C(\N/C(=N/[H])NCCCCCCNC(=N)NC(=N)Nc1ccc(Cl)cc1)Nc1ccc(Cl)cc1 [Chlorhexidine diacetate, reference compound]",-2.1,-106.259,56.1 µM and 70.6 µM,4,0,78.5 µM,R,-2.1,"IC50 ([5]; SH-SY5Y spheroids (24 h)): 36.1 µM; IC50 ([5]; SH-SY5Y spheroids (48 h)): 41 µM; IC50 [6, 12]: 8.31 µM; IC50 [6, 9]: 9.21 µM; potency (IC50), Enzyme-based assay with heat-inactivated microsomes (recombinant human AChE [7]): Inactive; IC50 [8]: 32.5 µM; IC50 (recombinant human AChE [2]; IC50 (uM)): 50 µM; IC50 (recombinant human AChE [2]; potency (IC50), Enzyme): 54.6 µM; IC50 (AChE in SH-SY5Y cells; [11]): 70.9 µM; potency (IC50), Enzyme with microsomes (recombinant human AChE [3]): Inactive"
"CCOP(=O)(OCC)Oc1nc(Cl)c(Cl)cc1Cl [Chlorpyrifos oxon, reference compound]",-1.1,-95.546,–,-1.1,-96.78,–,–,-1.1,reversibility of AChE inhibition (result in words) (recombinant human AChE [4]): irreversibility
"CCc1ccc(C(=O)C(C)CN2CCCCC2)cc1.Cl (stereo not shown) [Eperisone hydrochloride, reference compound]",-2.2,-46.815,15.5 µM,4,0,10.9 µM (3×) and 21.7 µM and 15.3 µM (2×) and 17.2 µM,R,-2.1,"IC50 [6, 12]: 15 µM; IC50 [6, 9]: 13.3 µM; IC50 (recombinant human AChE [1]; [10]): 38.7 µM; IC50 (recombinant human AChE [7]): 40.1 ± 2.71 µM; IC50 [8]: 19.3 µM; IC50 (recombinant human AChE [2]; potency (IC50), Enzyme): 27.4 µM; IC50 (AChE in SH-SY5Y cells; [11]): 25.3 µM"
CNC(=O)Oc1cccc(N=CN(C)C)c1 [Formetanate hydrochloride],–,–,–,–,–,63.1 µM and 56.2 µM (2×) and 50.1 µM and 70.7 µM and 44.6 µM and 39.8 µM,–,–,–
"Nc1c2c(nc3ccccc13)CCCC2O.O=C(O)/C=C\C(=O)O (stereo not shown) [Hydroxytacrine maleate, reference compound]",-1.1,-95.079,–,-2.1,-93.06,–,R,-1.1,–
COP(N)(=S)Oc1ccccc1C(=O)OC(C)C (stereo not shown) [Isocarbophos],4,0,89.4 µM,-1.1,-89.537,–,–,–,"IC50 ([5]; SH-SY5Y spheroids (48 h)): 41.5 µM; IC50 [6, 12]: 29.9 µM; IC50 [6, 9]: 23.1 µM; IC50 (recombinant human AChE [1]; IC50 (uM)): 2.83 µM; IC50 (recombinant human AChE [1]; [10]): 8.21 µM; IC50 (recombinant human AChE [7]): 55.9 µM; IC50 [8]: 27.8 µM; AChE inhibition (result in words) (recombinant human AChE [2]): did not show effects; IC50 (AChE in SH-SY5Y cells; [11]): 54.3 ± 9.25 µM"
"CCC1(c2cccc(O)c2)CCCCN(C)C1 (stereo not shown) [Meptazinol hydrochloride, reference compound]",–,–,–,–,–,4.64 µM and 9.25 µM and 3.68 µM and 5.2 µM and 8.25 µM and 5.84 µM and 6.55 µM,–,–,–
"CCN(CC)CCNC(=O)c1c(C)[nH]c(/C=C2\C(=O)Nc3ccc(F)cc32)c1C [Sunitinib malate, reference compound]",-1.1,-78.177,–,-2.2,-53.539,–,R,-1.1,–
"COc1cc2c(N3CCN(C(=O)Nc4ccc(OC(C)C)cc4)CC3)ncnc2cc1OCCCN1CCCCC1 [Tandutinib, reference compound]",-2.1,-82.501,–,4,-26.796,–,R,-2.1,Efficacy (recombinant human AChE [4]): -90.305
CCOP(=S)(OCC)SCSC(C)(C)C [Terbufos],4,0,89.4 µM,-2.1,–,–,–,–,"IC50 ([5]; SH-SY5Y spheroids (24 h)): 2.19 µM; IC50 ([5]; SH-SY5Y spheroids (48 h)): 35.4 µM; IC50 [6, 12]: 1.83 µM; IC50 [6, 9]: 2.75 µM; IC50 (recombinant human AChE [1]; IC50 (uM)): 56.4 µM and 40.2 µM; IC50 (recombinant human AChE [1]; [10]): 4.27 µM; potency (IC50), Enzyme-based assay with heat-inactivated microsomes (recombinant human AChE [7]): Inactive; IC50 [8]: 2.31 µM; AChE inhibition (result in words) (recombinant human AChE [2]): did not show effects; potency (IC50), Enzyme (recombinant human AChE [2]): Inactive; potency (IC50), SH-SY5Y cells monolayer (AChE in SH-SY5Y cells): Inactive"
O=P(Oc1ccccc1)(Oc1ccccc1)Oc1ccccc1 [Triphenyl phosphate],-1.1,–,20 µM and 19.9 µM and 22.3 µM and 35.6 µM and 31.6 µM and 28.1 µM and 25.2 µM,-2.1,–,–,–,-1.1 and -2.1,–
COP(=O)(OC)O/C(=C\Cl)c1cc(Cl)c(Cl)cc1Cl [Z-Tetrachlorvinphos],-2.4,-30.752,63.3 µM and 79.6 µM,4,0,–,–,-2.2,IC50 (recombinant human AChE [2]; IC50 (uM)): 71 µM; IC50 (AChE in SH-SY5Y cells; read-out: IC50): 44.8 µM
COc1cc(N)c(Cl)cc1C(=O)NC1CN2CCC1CC2.Cl (stereo not shown) [Zacopride hydrochloride],4,0,–,4,0,–,–,-2.2,–
"O=C(CCC1CCN(Cc2ccccc2)CC1)c1ccc2c(c1)NCCCC2.O=C(O)/C=C/C(=O)O [Zanapezil fumerate, reference compound]",-1.1,-97.056,–,-1.1,-97.158,–,R,-1.1,–
O=C(O)/C=C\C(=O)O.O=C(O)/C=C\C(=O)O.c1cc(CN2CCCCC2)cc(OCCCNc2nc3ccccc3s2)c1 [Zolantidine dimaleate],-2.1,-71.468,–,4,0,–,–,-2.1,IC50 (recombinant human AChE [2]; read-out: IC50): 27.5 µM; IC50 (AChE in SH-SY5Y cells; read-out: IC50): 13.8 µM and 15.5 µM
CNC(=O)Oc1cccc2ccccc12 [carbaryl],–,–,–,–,–,–,–,–,reversibility of AChE inhibition (result in words) (recombinant human AChE [4]): significant IC50 difference at 60 min
